From EP4741392A1, “1H-PYRAZOLO[4,3-C]PYRIDINE COMPOUND, AND COMPOSITION THEREOF AND USE THEREOF” (Shenzhen TargetRx Co., Ltd., priority 2023, dated 2025)
Like-named read-outs stand apart in the source and are kept apart here.

What was measured:
Type in all cases: cell-based
[1] = system: Ramos cells with BTK WT; test: Phosphor-BTK(Y223) assay, suspended cells; conditions: phosphorylated BTK Y223, Ramos cells with BTK WT
Method: (§1) The purpose of this assay was to simply, quickly and directly detect the level of endogenous BTK phosphorylation in cells.
The steps for handling suspended cells were as follows: • 1) Ramos cells with BTK WT (2.5 k/well), BTK C481S (2.5 k/well), or BTK T474I (2.5 k/well) were plated in a 96-well plate, respectively. A compound of different concentration gradients was added using Tecan D300e, and the plate was incubated at 37 °C and 5% CO2 for 2 hours. • 2) 8.33 µL of 20 mM Na3VO4 was added to bring the final concentration to 5 mM, and the plate was incubated at 37 °C and 5% CO2 for 3 h. • 3) During the incubation, the following reagents were prepared: • 4x added lysis buffer: 24 vol 4x lysis buffer + 1 vol 25x blocking reagent. • p-BTK (Y223) cryptate-antibody and p-BTK (Y223) d2-antibody working solutions: 1 volume of each cryopreserved antibody (stored at - 20 °C) was added to 38 times the volume of assay buffer (stored at 4 °C), and mixed well. • 4) After the incubation was completed, 11.1 µL of 4x added lysis buffer was directly added. The plate was shaken at 800 rpm at room temperature for 30 min. • 5) The lysate was mixed well and 16 µL of it was transferred to a 384-well plate. 1 × added lysis buffer was used as a blank control. • 6) 4 µL of pre-mixed working solutions of the two antibodies (cryptate Ab:d2 Ab = 1:1) was added, and the plate was sealed. • 7) The plate was incubated at room temperature overnight. • 8) The plate was read at 665nm and 620nm using Biotek cytation3.0 microplate reader, and the ratio of 665/620nm of each well was calculated. Data analysis: IC50 was calculated using GraphPad Prism 7.0 software.
(§2) The IC50 (half-maximal phosphorylation inhibitory concentration) of the phosphorylated BTK Y223 of the compound was obtained using the following nonlinear fitting formula: Y = Bottom + (Top−Bottom)/(1+10^(∧)((LogIC50−X)*HillSlope)) [formula] • X: Log value of the compound concentration • Y: Inhibition rate (% inhibition) • Top: Maximum response • Bottom: Baseline response • HillSlope: Slope of the curve
(§3) The formula for calculating cell phosphorylation inhibition rate (inhibition rate %) was: Inhibition rate% = 1−(eachconcentrationwell-blankwell)/(positivecontrolwell−blankwell) [formula]

[2] = system: NIH/3T3 BTK WT cells; test: Phosphor-BTK(Y223) assay, adherent cells; conditions: read-out: NIH/3T3 BTK-WT pBTK
Method: as §1
(§4) The steps for handling adherent cells were as follows: • 1) NIH/3T3 BTK WT cells (7.5 k/well) and NIH/3T3 BTK C481S cells (10 k/well) were plated in a 96-well plate, respectively, and cultured at 37 °C and 5% CO2 overnight. • 2) A 3-fold final concentration gradient dilution of a compound was prepared, and 50 µL of it was taken and added to 100 µL of cell culture. 0.5% DMSO was used as a positive control for cell growth. • 3) The plate was incubated at 37 °C and 5% CO2 for 0.5 h. • 4) Na3VO4 at a final concentration of 1mM was added, and the plate was incubated at 37 °C and 5% CO2 for 2 hours. • 5) During the incubation, the following reagents were prepared: • 1x added lysis buffer: 3 vol ddH2O + 1 vol 4x lysis buffer + 100x blocking reagent. • p-BTK (Y223) cryptate-antibody and p-BTK (Y223) d2-antibody working solutions: 1 volume of each cryopreserved antibody (stored at - 20 °C) was added to 19 times the volume of assay buffer (stored at 4 °C). • 6) After the incubation was completed, the medium was removed and 50 µL of 1x added lysis buffer was added. The plate was centrifuged at 500 rpm at room temperature for 30 min. • 7) The lysate was mixed well and 16 µL of it was transferred to a 384-well plate. 1 × added lysis buffer was used as a blank control. • 8) 4 µL of pre-mixed working solutions of the two antibodies (cryptate Ab:d2 Ab = 1:1) was added, and the plate was sealed. • 9) The plate was incubated at room temperature overnight. 10) The plate was read at 665nm and 620nm using Biotek cytation3.0 microplate reader, and the ratio of 665/620nm of each well was calculated.
as §2, §3

[3] = system: NIH/3T3 BTK C481S cells; test: Phosphor-BTK(Y223) assay, adherent cells; conditions: read-out: NIH/3T3 BTK-C481S pBTK
Method: as §1, §4, §2, §3

[4] = Mus musculus, NIH3T3, phosphorylated BTK Y223, NIH/3T3 BTK WT cells
[5] = Mus musculus, NIH3T3, phosphorylated BTK Y223, NIH/3T3 BTK C481S cells

Compound | IC50 [1] [nM] | IC50 ([2]; phosphorylated BTK Y223, NIH/3T3 BTK WT cells) [nM] | IC50 ([3]; phosphorylated BTK Y223, NIH/3T3 BTK C481S cells) [nM] | IC50 ([1]; Homo sapiens, Ramos) [nM] | IC50 [2, 4] [nM] | IC50 [3, 5] [nM]
N-(4-(3-amino-7-(1,7-naphthyridin-2-yl)-1H-pyrazolo[4,3-c]pyridin-4-yl)benzyl)-5-fluoro-2-methoxybenzamide [Example 49] | > 50 | > 50 | > 50 |  |  | 
COc1ccc(F)cc1C(=O)NCc1ccc(-c2nc(-c3c(Cl)cccc3Cl)cc3[nH]nc(N)c23)cc1 [Example 89, N-(4-(3-amino-6-(2,6-dichlorophenyl)-1H-pyrazolo[4,3-c]pyridin-4-yl)benzyl)-5-fluoro-2-methoxybenzamide] |  |  |  | 10 to 50 | 10 to 50 | > 50
COc1ccc(F)cc1C(=O)NCc1ccc(-c2nc(C(C)C(F)(F)F)c(-c3cnccn3)c3[nH]nc(N)c23)cc1 (stereo not drawn) [Example 8, N-(4-(3-amino-7-(pyrazin-2-yl)-6-(1,1,1-trifluoropropan-2-yl)-1H-pyrazolo[4,3-c]pyridin-4-yl)benzyl)-5-fluoro-2-methoxybenzamide] |  |  |  | > 50 | > 50 | > 50
COc1ccc(F)cc1C(=O)NCc1ccc(-c2ncc(C(=O)NC3CC3)c3[nH]nc(N)c23)cc1 [Example 81, 3-amino-N-cyclopropyl-4-(4-((5-fluoro-2-methoxybenzoylamino)methyl)phenyl)-1H-pyrazolo[4,3-c]pyridine-7-carboxamide] |  |  |  | > 50 | > 50 | > 50
COc1ccc(F)cc1C(=O)NCc1ccc(-c2ncc(-c3cnc4ncccn34)c3[nH]nc(N)c23)cc1 [Example 63, N-(4-(3-amino-7-(imidazo[1,2-a]pyrimidin-3-yl)-1H-pyrazolo[4,3-c]pyridin-4-yl)benzyl)-5-fluoro-2-methoxybenzamide] |  |  |  | > 50 | > 50 | > 50
COc1ccc(F)cc1C(=O)NCc1ccc(-c2ncc(-c3cnc4ccccn34)c3[nH]nc(N)c23)cc1 [Example 55, N-(4-(3-amino-7-(imidazo[1,2-a]pyridin-3-yl)-1H-pyrazolo[4,3-c]pyridin-4-yl)benzyl)-5-fluoro-2-methoxybenzamide] |  |  |  | > 50 | > 50 | > 50
COc1ccc(F)cc1C(=O)NCc1ccc(-c2ncc(-c3ccnnc3)c3[nH]nc(N)c23)cc1 [Example 20, N-(4-(3-amino-7-(pyridazin-4-yl)-1H-pyrazolo[4,3-c]pyridin-4-yl)benzyl)-5-fluoro-2-methoxybenzamide] |  |  |  | > 50 | > 50 | > 50
COc1ccc(F)cc1C(=O)NCc1ccc(-c2nc(C(C)C(F)(F)F)c(-c3ccccc3)c3[nH]nc(N)c23)cc1 (stereo not drawn) [Example 14, N-(4-(3-amino-7-phenyl-6-(1,1,1-trifluoropropan-2-yl)-1H-pyrazolo[4,3-c]pyridin-4-yl)benzyl)-5-fluoro-2-methoxybenzamide] |  |  |  | > 50 | > 50 | > 50
COc1ccc(F)cc1C(=O)NCc1ccc(-c2ncc(-c3cccnn3)c3[nH]nc(N)c23)cc1 [Example 40, N-(4-(3-amino-7-(pyridazin-3-yl)-1H-pyrazolo[4,3-c]pyridin-4-yl)benzyl)-5-fluoro-2-methoxybenzamide] |  |  |  | 10 to 50 | 10 to 50 | > 50
COc1ccc(F)cc1C(=O)NCc1ccc(-c2ncc(-c3ncn4ccccc34)c3[nH]nc(N)c23)cc1 [Example 113, N-(4-(3-amino-7-(imidazo[1,5-a]pyridin-1-yl)-1H-pyrazolo[4,3-c]pyridin-4-yl)benzyl)-5-fluoro-2-methoxybenzamide] |  |  |  | ≤ 5 | ≤ 5 | ≤ 5
COc1ccc(F)cc1C(=O)NCc1ccc(-c2nccc3[nH]nc(N)c23)cc1 [Example 116, N-(4-(3-amino-1H-pyrazolo[4,3-c]pyridin-4-yl)benzyl)-5-fluoro-2-methoxvbenzamide] |  |  |  | > 50 | > 50 | > 50
Nc1n[nH]c2cc(C3CC[S+]([O-])CC3)nc(-c3ccc(CNC(=O)c4cc(F)ccc4O)cc3)c12 (stereo not drawn) [Example 92, N-(4-(3-amino-6-(1-oxidotetrahydro-2H-thiopyran-4-yl)-1H-pyrazolo[4,3-c]pyridin-4-yl)benzyl)-5-fluoro-2-hydroxybenzamide] |  |  |  | 10 to 50 | > 50 | > 50
COc1ccc(F)cc1C(=O)NCc1ccc(-c2ncc(-c3cnc4ccnn4c3)c3[nH]nc(N)c23)cc1 [Example 34, N-(4-(3-amino-7-(pyrazolo[1,5-a]pyrimidin-6-yl)-1H-pyrazolo[4,3-c]pyridin-4-yl)benzyl)-5-fluoro-2-methoxybenzamide] |  |  |  | > 50 | > 50 | > 50
COc1ccc(F)cc1C(=O)NCc1ccc(-c2nc(C(C)C(F)(F)F)c(-c3ccccn3)c3[nH]nc(N)c23)cc1 (stereo not drawn) [Example 5, N-(4-(3-amino-7-(pyridin-2-yl)-6-(1,1,1-trifluoropropan-2-yl)-1H-pyrazolo[4,3-c]pyridin-4-yl)benzyl)-5-fluoro-2-methoxybenzamide] |  |  |  | > 50 | > 50 | > 50
COc1ccc(F)cc1C(=O)NCc1ccc(-c2nc(C(C)C(F)(F)F)c(Br)c3[nH]nc(N)c23)cc1 (stereo not drawn) [Example 4, N-(4-(3-amino-7-bromo-6-(1,1,1-trifluoropropan-2-yl)-1H-pyrazolo[4,3-c]pyridin-4-yl)benzyl)-5-fluoro-2-methoxybenzamide] |  |  |  | > 50 | > 50 | > 50
COc1ccc(F)cc1C(=O)NCc1ccc(-c2ncc(-c3cnc4cccnn34)c3[nH]nc(N)c23)cc1 [Example 110, N-(4-(3-amino-7-(imidazo[1,2-b]pyridazin-3-yl)-1H-pyrazolo[4,3-c]pyridin-4-yl)benzyl)-5-fluoro-2-methoxybenzamide] |  |  |  | > 50 | > 50 | > 50
